Measurements as given in article PMC9519446, “Discovery of an Orally Active Benzoxaborole Prodrug Effective in the Treatment of Chagas Disease in Non-human Primates” (Nature microbiology, 2022).
Several values for one entry are separate records, joined by “and”; a condition that tells them apart may be missing. Identical values can stand only once.

Test: NHP health screening: hematology (CBC)
Assay type: in vivo, rhesus macaques (Macaca mulatta)
[1] = treated female macaques, post-dosing bleed, Mean
[2] = treated macaques, end of study bleed, individual animals
[3] = treated macaques, mid-dosing bleed, individual animals

Experimental: Under light-anesthesia/sedation, peripheral blood samples were collected from each animal prior to treatment and at 7 time points following. Blood analysis (CBC and serum chemistry assays) and physical exams to evaluate the health of the study animals were performed on each animal prior to the beginning of the study and also at three time points during the treatment protocol (see Supplementary data).

Cc1c(C(=O)N[C@H](C(=O)OCC2CCOCC2)C(C)C)ccc2c1B(O)OC2 [AN15368]
Mch [1]: 23.6944 Pgs
Mchc [1]: 32.2333 G/Dl
Mcv [1]: 73.5333 fL
Mono [1]: 0.2561 10^3/µL
Mpv [1]: 7.553 fL
Neut [1]: 2.507 10^3/µL
Plt [1]: 330.353 10^3/µL
Rbc [1]: 5.521 10^6/µL
Rdw [1]: 12.4778%
Wbc [1]: 5.361 10^3/µL
Baso [2]: 0.01 10^3/µL and 0.02 10^3/µL and 0 10^3/µL
Eos [2]: 0.07 10^3/µL and 0.12 10^3/µL and 0.02 10^3/µL and 0.06 10^3/µL and 0.17 10^3/µL and 0.01 10^3/µL and 0.05 10^3/µL and 0.21 10^3/µL and 0.16 10^3/µL and 0.03 10^3/µL
Hct [2]: 39.5% and 45.3% and 41.2% and 45.7% and 43.1% and 42.5% and 44.2% and 44% and 41.8% and 40.4% and 42.9% and 44.8% and 39.8%
Hgb [2]: 11.9 G/Dl and 14.7 G/Dl and 12.8 G/Dl and 14.6 G/Dl and 13.3 G/Dl and 13.2 G/Dl and 13.6 G/Dl and 13.7 G/Dl and 13.1 G/Dl and 13 G/Dl and 12.9 G/Dl and 13.4 G/Dl and 12.3 G/Dl
Lymp [2]: 1.75 10^3/µL and 3.93 10^3/µL and 1.62 10^3/µL and 3.5 10^3/µL and 2.42 10^3/µL and 0.76 10^3/µL and 1.4 10^3/µL and 2.46 10^3/µL and 2.32 10^3/µL and 1.59 10^3/µL and 0.91 10^3/µL and 2.37 10^3/µL and 1.53 10^3/µL and 1.63 10^3/µL
Mch [2]: 21.9 Pgs and 22.2 Pgs and 23.6 Pgs and 24.2 Pgs and 22.7 Pgs and 21.7 Pgs and 21.5 Pgs and 23.8 Pgs and 22.4 Pgs and 22.3 Pgs and 22.5 Pgs and 22.9 Pgs
Mchc [2]: 30.1 G/Dl and 32.5 G/Dl and 31.1 G/Dl and 31.9 G/Dl and 30.9 G/Dl and 30.8 G/Dl and 29.6 G/Dl and 31.6 G/Dl and 32.2 G/Dl and 29.9 G/Dl
Mcv [2]: 72.3 fL and 68.2 fL and 75.6 fL and 75.7 fL and 73.4 fL and 69.9 fL and 73.5 fL and 73.1 fL and 75.2 fL and 69.2 fL and 74.1 fL and 75.4 fL and 74.4 fL
Mono [2]: 0.25 10^3/µL and 0.23 10^3/µL and 0.17 10^3/µL and 0.37 10^3/µL and 0.36 10^3/µL and 0.48 10^3/µL and 0.3 10^3/µL and 0.21 10^3/µL and 0.2 10^3/µL and 0.44 10^3/µL and 0.26 10^3/µL and 0.29 10^3/µL and 0.12 10^3/µL
Mpv [2]: 6.3 fL and 7.4 fL and 8.1 fL and 9.7 fL and 8.4 fL and 7 fL and 6.5 fL and 7.9 fL and 7.2 fL and 6.9 fL and 7.3 fL and 6.4 fL
Neut [2]: 1.44 10^3/µL and 1.12 10^3/µL and 1.09 10^3/µL and 1.69 10^3/µL and 4.26 10^3/µL and 8.57 10^3/µL and 5.95 10^3/µL and 2.2 10^3/µL and 1.94 10^3/µL and 1.95 10^3/µL and 8.94 10^3/µL and 3.94 10^3/µL and 6.95 10^3/µL and 1.75 10^3/µL
Plt [2]: 418 10^3/µL and 361 10^3/µL and 262 10^3/µL and 246 10^3/µL and 276 10^3/µL and 221 10^3/µL and 490 10^3/µL and 360 10^3/µL and 283 10^3/µL and 257 10^3/µL and 336 10^3/µL and 367 10^3/µL and 446 10^3/µL and 324 10^3/µL
Rbc [2]: 5.46 10^6/µL and 6.64 10^6/µL and 5.45 10^6/µL and 6.04 10^6/µL and 5.87 10^6/µL and 6.08 10^6/µL and 6.01 10^6/µL and 6.02 10^6/µL and 6.11 10^6/µL and 5.56 10^6/µL and 5.84 10^6/µL and 5.79 10^6/µL and 5.94 10^6/µL and 5.35 10^6/µL
Rdw [2]: 13.4% and 11.4% and 12.4% and 11.5% and 12.2% and 12.3% and 12.8% and 11.8%
Wbc [2]: 3.51 10^3/µL and 5.42 10^3/µL and 2.91 10^3/µL and 5.63 10^3/µL and 7.21 10^3/µL and 9.83 10^3/µL and 7.73 10^3/µL and 5.19 10^3/µL and 4.54 10^3/µL and 3.78 10^3/µL and 10.31 10^3/µL and 6.74 10^3/µL and 8.9 10^3/µL and 3.54 10^3/µL
Baso [3]: 0.01 10^3/µL and 0.02 10^3/µL and 0 10^3/µL
Eos [3]: 0.07 10^3/µL and 0.09 10^3/µL and 0.04 10^3/µL and 0.06 10^3/µL and 0.16 10^3/µL and 0.08 10^3/µL and 0.05 10^3/µL and 0.18 10^3/µL and 0.19 10^3/µL and 0.2 10^3/µL and 0.02 10^3/µL and 0.26 10^3/µL
